# Test results published in patent US8404665B2, “In vivo use of glutathione S-transferase activated nitric oxide donors” (University of Utah Research Foundation, priority 2002, dated 2013).
# Read-outs that look alike come from different tables or passages of the source.
# What was measured:
# [1] = mouse, in vivo, iv
# HL-60 cells [2] = test: Subcutaneous HL-60 tumor implants in NOD/SCID mice; assay type: in vivo
# Procedure: To study the in vivo antineoplastic potency of JS-K, NOD/SCID mice were injected in the flanks subcutaneously with HL-60 or PPC-1 cells (2.5×10^6 cells per flank). When subcutaneous tumors were palpable, treatment with JS-K or an equal volume of vehicle (20% dimethyl sulfoxide in PBS) was started using the indicated doses and route. Tumor size was measured daily or every other day using a Vernier caliper. Tumor volume was calculated using the formula: width×length×[(width+length)/2]×0.5236. Fifteen to 20 days after tumor cell implantation, animals were sacrificed by CO2 inhalation and tumors were collected for histochemical analysis.
# Histological Analysis of Tumors. After sacrifice, subcutaneous tumors were dissected out, fixed in 10% formaldehyde and imbedded in paraffin. Four-um sections were cut and stained with Hematoxylin and Eosin.
# To determine the in vivo therapeutic efficacy of JS-K, NOD/SCID mice were injected subcutaneously with 5×10^6 HL-60 cells in the flanks. When tumors were measurable (4 to 5 days after leukemia cell inoculation), the mice were divided into 2 groups that received either vehicle or JS-K at a dose of 4 μmol/kg administered intravenously 3 times per week. After seventeen days from the leukemia cell inoculation there appeared to be a significant difference in tumor volume between vehicle and JS-K treated animals: tumor volume was 9.51±1.22 and 4.15±1.06 cm^3 in vehicle and JS-K treated animals, respectively.
# Meth A = Meth A solid tumor cell growth; assay type: cell-based
# Procedure: (§1) Cell Lines and Culture Conditions. HL-60, DLD1, and U937 cells were obtained from ATCC (Rockville, Md.). Meth A cells were from Dr. Wolfram Samlowski (University of Utah, Salt Lake City, Utah). The PPC-1 cell line was provided by Dr. Graeme Bolger (University of Alabama, Birmingham, Ala.). For the cell growth and apoptosis experiments, cells were cultured at a density of 150,000 cells/ml in RPMI-1640 with 10% fetal bovine serum at 37° C. in a 5% CO2 humidified atmosphere. Agents were added at the indicated concentrations 24 h after culture initiation. At the indicated time intervals, cells were harvested and washed twice in phosphate buffered saline (PBS) prior to processing for analysis of growth, differentiation, and apoptosis.
# (§2) Cell Growth, Differentiation and Apoptosis Assays. The number of viable cells was determined using the MTT assay according to the manufacturer's protocol (Promega, Madison, Wis.) or using a Coulter counter. […] The assay is useful in calorimetric quantitation of cell viability and proliferation. In contrast, cell differentiation was evaluated using Wright and Non-Specific Esterase (NSE) staining of cells collected on microscope slides by cytospin as previously described (Magrinat, G. et al. (1992) Blood 80: 1880-1884). […]
# U937 cells = test: U937 leukemia cell growth; assay type: cell-based, human
# Procedure: as §1, with “At the indicated time intervals, cells were harvested and washed twice in phosphate buffered saline (PBS) prior to processing for analysis of growth, differentiation, and apoptosis.” left out
# as §2
# The antiproliferative effects in the human AML (Acute Myeloid Leukemia) cell lines, HL-60 (myeloid leukemia) and U937 (monoblastic leukemia) cells were treated with JS-K for a period of 3 days, upon which cell growth was evaluated using a Coulter counter (CITY, STATE). […]
# PPC-1 cells = test: PPC-1 prostate cancer cell growth in vitro; assay type: cell-based
# Procedure: as §1, §2
# Hydrolysis of JS-K = assay type: physicochemical
# Procedure: For increased JS-K consumption rate at an initial concentration of 50 uM in 0.1 M phosphate (pH=7.4) at 37° C. as a function of increasing GSH concentration. The value of k1 obtained from the intercept appeared to be in statistical agreement with the rate constant for JS-K hydrolysis (1×10^−6 s^−1) measured separately in the absence of GSH. The small amount of the hydrolysis product (2,4-dinitrophenol) (data not shown) was apparently formed in the dimethyl sulfoxide stock solution, which in this case had been stored in the refrigerator with intermittent use during several weeks.
# HL-60 cells [3] = test: Apoptosis in HL-60 cells by flow cytometry (sub-G0 fraction); assay type: cell-based, human; details: for percentage of apoptotic cells (sub-G0 fraction): three days post-addition, control 7 percent
# Procedure: as §1
# Cell Growth, Differentiation and Apoptosis Assays. The number of viable cells was determined using the MTT assay according to the manufacturer's protocol (Promega, Madison, Wis.) or using a Coulter counter. Briefly, a MTT assay is an analytical technique that uses the dye dimethylthiazolyl-diphenyltetrazolium (MTT) which turns from yellow to brownish-purple as it is reduced in the mitochondria of living cells. The assay is useful in calorimetric quantitation of cell viability and proliferation. In contrast, cell differentiation was evaluated using Wright and Non-Specific Esterase (NSE) staining of cells collected on microscope slides by cytospin as previously described (Magrinat, G. et al. (1992) Blood 80: 1880-1884). Apoptosis was assayed by flow cytometry and by determining DNA fragmentation using agarose gel electrophoresis as previously described (Shami, P. J. et al. (1998) Leukemia 12: 1461-1466). For the flow cytometry assay, we used the propidium iodide staining method of Nicoletti et al. (Nicoletti, I. et al. (1991) J. Immunol. Methods 139: 271-279).
# To determine if JS-K could induce apoptosis in leukemia cells, it was added to HL-60 cells at concentrations of 0.5 and 1.0 μM. Three days post-addition, the percentage of apoptotic cells was determined by measuring the number of cells in the sub-G0 fraction of the cell cycle using flow cytometry. […]
# [4] = 4 μmol/kg i.v. 3 times per week
compound,measurement,setting,value
"CCOC(=O)N1CCN(/[N+]([O-])=N/Oc2ccc([N+](=O)[O-])cc2[N+](=O)[O-])CC1 [JS-K, O^2-(2,4-dinitrophenyl) 1-[(4-ethoxycarbonyl)piperazin-1-yl]diazen-1-ium-1,2-diolate]",peak blood concentration the dose would achieve,[1],approximately 68 μM
same,leukemia implant growth in vivo,HL-60 cells [2]; [4],significant delay in leukemia implant growth in vivo
same,tumor histology (necrosis) at experiment termination,HL-60 cells [2]; [4],extensive necrosis
same,tumor volume,"HL-60 cells [2]; 4 μmol/kg i.v. 3 times per week, seventeen days from inoculation, vehicle 9.51±1.22",4.15±1.06 cm^3
same,cell necrosis in tumors (histologic analysis),HL-60 cells [2]; controls ˜10%,more than 50%
same,reduction in tumor volume,"HL-60 cells [2]; sixteen days after starting therapy, versus control",more than 50%
same,average tumor volume,"HL-60 cells [2]; sixteen days after starting therapy, control 8.34±0.72, P=0.039",3.13±1.14 cm^3
same,IC50 relative to leukemia lines,Meth A,an order of magnitude greater than those for the two leukemia lines
same,IC50,"U937 cells; U937 (monocytic leukemia) cells, read-out: IC50, growth",0.3 µM
same,IC50,"U937 cells; U937, 3 days, Coulter counter, read-out: IC50, cell growth",0.33 µM
same,cell growth inhibition,"PPC-1 cells; 1, 2, 3, 4 and 5 μM, 3 days",potent inhibitor of prostate cancer growth
same,IC50 relative to leukemia lines,PPC-1 cells; PPC-1,an order of magnitude greater than those for the two leukemia lines
same,resistance to hydrolysis,"Hydrolysis of JS-K; 0.1 M phosphate pH 7.4, 37° C.",resistant to simple hydrolysis
same,rate constant for JS-K hydrolysis,"Hydrolysis of JS-K; measured separately in the absence of GSH, pH 7.4, 37° C.",1e-06 s⁻¹
same,hydrolysis,Hydrolysis of JS-K; pH=12,much more facile
same,percentage of apoptotic cells (sub-G0 fraction),HL-60 cells [3]; 0.5 μM,27±3%
same,percentage of apoptotic cells (sub-G0 fraction),HL-60 cells [3]; 1.0 μM,43±2%
same,percentage of apoptotic cells,"HL-60 cells [3]; HL-60, flow cytometry, co-administration of C-VAD-FMK and JS-K, p=0.44 vs untreated",2.65+/−0.28%
